Experimental data: ChEMBL document CHEMBL1136440, “Design and synthesis of novel RXR-selective modulators with improved pharmacological profile” (Bioorg Med Chem Lett, 2003)
Where “and” joins values, the source holds several entries; their conditions need not be identical. Identical values can stand only once.

How the values were obtained:
[1] = molecular target: T1, Retinoic acid receptor beta (Homo sapiens, UniProt P10826); assay: Binding affinity against RAR beta receptor using [3H]ATRA as radioligand in CV-1 cells; type: cell-based, Cercopithecidae
T1 sequence (P10826 whole entry): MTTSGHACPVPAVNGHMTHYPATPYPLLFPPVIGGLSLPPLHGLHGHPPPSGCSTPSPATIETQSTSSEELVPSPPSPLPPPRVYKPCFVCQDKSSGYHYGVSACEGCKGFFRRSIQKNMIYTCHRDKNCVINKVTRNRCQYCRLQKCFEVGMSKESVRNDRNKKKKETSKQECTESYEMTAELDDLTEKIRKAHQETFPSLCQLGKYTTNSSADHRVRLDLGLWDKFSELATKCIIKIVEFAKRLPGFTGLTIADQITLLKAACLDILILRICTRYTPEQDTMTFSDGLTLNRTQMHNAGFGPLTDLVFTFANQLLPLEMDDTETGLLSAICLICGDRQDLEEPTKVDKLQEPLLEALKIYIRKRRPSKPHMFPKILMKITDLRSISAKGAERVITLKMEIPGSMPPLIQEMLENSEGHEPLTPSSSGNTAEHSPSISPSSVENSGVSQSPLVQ

[2] = Cmax value in IRC mice; type: ADME, organism-based; settings: mouse, in vivo
[3] = molecular target: T2, Peroxisome proliferator-activated receptor gamma (Homo sapiens, UniProt P37231)
T2 sequence (P37231 whole entry): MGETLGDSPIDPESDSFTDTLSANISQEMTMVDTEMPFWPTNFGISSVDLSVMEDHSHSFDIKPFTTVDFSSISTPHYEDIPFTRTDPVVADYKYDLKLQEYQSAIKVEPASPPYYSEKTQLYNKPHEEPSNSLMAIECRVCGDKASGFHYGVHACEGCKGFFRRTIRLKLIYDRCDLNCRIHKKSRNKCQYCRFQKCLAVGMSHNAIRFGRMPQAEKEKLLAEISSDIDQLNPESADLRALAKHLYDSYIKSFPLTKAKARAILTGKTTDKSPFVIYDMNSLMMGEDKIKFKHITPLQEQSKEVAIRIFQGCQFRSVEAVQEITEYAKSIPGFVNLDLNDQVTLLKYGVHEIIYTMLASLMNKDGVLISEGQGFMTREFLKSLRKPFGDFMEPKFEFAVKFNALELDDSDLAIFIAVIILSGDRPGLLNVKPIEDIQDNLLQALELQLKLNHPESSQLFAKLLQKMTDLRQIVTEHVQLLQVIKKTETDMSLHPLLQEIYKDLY
Description: In vitro agonistic activity against PPAR gamma along with 100 nM BRL-49653

[4] = molecular target: T3, Retinoic acid receptor alpha (Homo sapiens) (UniProt P10276); assay: Agonist synergy against RAR alpha was tested along with 3 nM TTNPB; type: functional; settings: Cercopithecidae
T3 sequence (whole entry): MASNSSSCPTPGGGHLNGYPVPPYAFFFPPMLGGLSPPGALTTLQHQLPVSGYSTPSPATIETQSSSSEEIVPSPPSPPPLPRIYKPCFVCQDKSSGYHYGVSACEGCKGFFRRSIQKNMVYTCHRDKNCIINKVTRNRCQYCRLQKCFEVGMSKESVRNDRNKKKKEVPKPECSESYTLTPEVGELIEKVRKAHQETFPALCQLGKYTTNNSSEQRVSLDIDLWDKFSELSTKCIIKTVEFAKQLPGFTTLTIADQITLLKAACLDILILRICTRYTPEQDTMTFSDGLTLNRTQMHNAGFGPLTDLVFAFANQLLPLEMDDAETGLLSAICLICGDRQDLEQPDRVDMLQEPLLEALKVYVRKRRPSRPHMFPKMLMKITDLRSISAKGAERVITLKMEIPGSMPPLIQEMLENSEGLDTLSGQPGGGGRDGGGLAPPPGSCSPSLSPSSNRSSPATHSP

[5] = Tmax value in IRC mice; type: ADME, organism-based; settings: mouse, in vivo
[6] = molecular target: T4, Retinoic acid receptor RXR-gamma (Homo sapiens, UniProt P48443); assay: Binding affinity against RXR gamma receptor using [3H]9-cis-RA as radioligand in CV-1 cells; type: cell-based, Cercopithecidae
T4 sequence (P48443 whole entry): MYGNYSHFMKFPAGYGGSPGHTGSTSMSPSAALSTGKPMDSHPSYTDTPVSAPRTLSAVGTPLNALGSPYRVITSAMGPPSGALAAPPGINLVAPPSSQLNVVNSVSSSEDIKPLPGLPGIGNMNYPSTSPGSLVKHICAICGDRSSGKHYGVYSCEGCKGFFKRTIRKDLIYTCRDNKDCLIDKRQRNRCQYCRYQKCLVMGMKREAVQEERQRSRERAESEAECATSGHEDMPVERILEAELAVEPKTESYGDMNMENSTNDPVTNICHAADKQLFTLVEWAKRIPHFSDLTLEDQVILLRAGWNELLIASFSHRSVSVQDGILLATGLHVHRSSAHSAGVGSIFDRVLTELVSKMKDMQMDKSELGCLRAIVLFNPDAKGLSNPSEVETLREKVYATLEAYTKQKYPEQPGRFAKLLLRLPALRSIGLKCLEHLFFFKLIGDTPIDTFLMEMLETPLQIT

[7] = molecular target: T5, Retinoic acid receptor RXR-alpha (Homo sapiens, UniProt P19793); assay: In vitro agonistic activity against RXR alpha in CV-1 cells; type: functional, cell-based, Cercopithecidae
T5 sequence (P19793 whole entry): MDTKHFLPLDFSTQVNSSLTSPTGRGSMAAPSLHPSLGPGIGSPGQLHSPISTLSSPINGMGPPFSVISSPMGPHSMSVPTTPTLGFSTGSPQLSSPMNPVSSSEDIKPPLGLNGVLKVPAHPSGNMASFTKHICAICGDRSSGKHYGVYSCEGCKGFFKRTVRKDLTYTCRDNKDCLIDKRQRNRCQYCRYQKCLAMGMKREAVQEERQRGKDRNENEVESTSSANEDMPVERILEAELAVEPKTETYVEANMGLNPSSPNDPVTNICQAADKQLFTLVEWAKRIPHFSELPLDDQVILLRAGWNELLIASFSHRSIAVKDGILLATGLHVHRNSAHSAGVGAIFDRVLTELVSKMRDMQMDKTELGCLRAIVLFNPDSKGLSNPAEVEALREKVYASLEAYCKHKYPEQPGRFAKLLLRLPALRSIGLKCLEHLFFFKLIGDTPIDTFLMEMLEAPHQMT

| SMILES | Ki [1] | Cmax [2] | EC50 [3] | Synergy [4] | Tmax [5] | Ki [6] | EC50 [7] |
| --- | --- | --- | --- | --- | --- | --- | --- |
| C/C(=C/C=C/C(C)=C/C(=O)O)c1cc(-c2ccccc2F)cc(C(C)C)c1OCC(F)F | 3930 nM | 4140 ng/mL and 9.31 µM | 0.4 nM | 1.5 nM | 1 h | 10.9 nM | – |
| CCOc1c(\C(C)=C/C=C/C(C)=C/C(=O)O)cc(C(F)(F)C(F)(F)F)cc1C(C)C | > 10000 nM | 4430 ng/mL and 10.2 µM | 0.7 nM | 2.8 nM | 1 h | 7.7 nM | 92 nM |
